Source: patent publication US10821115B2, “Compounds that inhibit Mcl-1 protein” (priority 2017, dated 2020)
Where two headings read alike, the source gives them in different places.

Experiments:
[1] = target: recombinant human Mcl-1 (residues 171-327) / Bim interaction (Homo sapiens (Human), UniProt Q07820); test: biochemical; assay type: binding; settings: read-out: Mcl-1 HTRF IC50
[2] = tested on: human multiple myeloma cell line, OPM-2; test: Cell viability assay (OPM-2 10 FBS), CellTiter-Glo; assay type: cell-based
Summary of the method: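 OPM-2 cells at 3000 cells/well in RPMI 1640 with 10% FBS were exposed to serially diluted compounds for 16 h at 37 °C, 5% CO2.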

[3] = TR-FRET, Mcl-1(171-327) / biotin-Bim (51-76)
[4] = Homo sapiens, OPM-2, 16 h, read-out: OPM-2 10% FBS IC50 IP, OPM-2 cells, 10% FBS, 16 h, CellTiter-Glo
[5] = read-out: OPM-2 10% FBS IC50 IP, OPM-2 cells, 10% FBS, 16 h, CellTiter-Glo
[6] = 0.1 nM Mcl-1(171-327), 0.05 nM biotin-Bim (51-76)
[7] = Homo sapiens, OPM-2, 16 h, read-out: OPM-2 10% FBS IC50 IP, OPM-2 cells, 10% FBS, 16 h incubation

Sequence of recombinant human Mcl-1 (residues 171-327) / Bim interaction (Q07820 171-327): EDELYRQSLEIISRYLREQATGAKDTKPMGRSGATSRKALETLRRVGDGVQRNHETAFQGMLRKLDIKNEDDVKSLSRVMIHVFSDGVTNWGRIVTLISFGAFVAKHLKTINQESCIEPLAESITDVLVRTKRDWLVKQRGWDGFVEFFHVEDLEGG

| Structure (SMILES) | IC50 [1, 3] | IC50 [2, 4] | further results |
| --- | --- | --- | --- |
| CO[C@@]1(CC(=O)N2CCC2)/C=C/C[C@H](C)[C@@H](C)S(=O)(=O)NC(=O)c2ccc3c(c2)N(C[C@@H]2CC[C@H]21)C[C@@]1(CCCc2cc(Cl)ccc21)CO3 [Example 100006, (1 S,3′R,6′R,7′S,8′E,11′S,12′R)-7′-(2-(1-azetidinyl)-2-oxoethyl)-6-chloro-7′-methoxy-1′,12′-dimethyl-3,4-dihydro-2H, 15′H-spiro[naphthalene-1,22′-[20]oxa[13]thia[1,14]diazatetracyclo[14.7.2.0-3,6˜.0˜19,24˜]pentacosa[8,16,18,24]tetraen]-15′-one 13′,13′-dioxide] | 0.081 nM | 131 nM | – |
| C[C@@H]1[C@@H](C)C/C=C/[C@](O)(c2ncnn2C)[C@@H]2CC[C@H]2CN2C[C@@]3(CCCc4cc(Cl)ccc43)COc3ccc(cc32)C(=O)NS1(=O)=O [Example 100221, (1S,3′R,6′R,7′R,8′E,11′S,12′R)-6-chloro-7′-hydroxy-11′,12′-dimethyl-7′-(1-methyl-1H-1,2,4-triazol-5-yl)-3,4-dihydro-2H,15′H-spiro[naphthalene-1,22′-[20]oxa[13]thia[1,14]diazatetracyclo [14.7.2.0~3,6~.0~19,24~]pentacosa[8,16,18,24]tetraen]-15′-one 13′,13′-dioxide] | 0.525 nM | 776 nM | – |
| CO[C@@]1(CC(=O)N2CCN(C)C[C@H]2C)/C=C/C[C@H](C)[C@@H](C)S(=O)(=O)NC(=O)c2ccc3c(c2)N(C[C@@H]2CC[C@H]21)C[C@@]1(CCCc2cc(Cl)ccc21)CO3 (single isomer, unassigned) [Example 100479] | 0.758 nM | – | IC50 [2, 5]: 332 nM |
| CO[C@@]1(CN2CCCCC2)/C=C/C[C@H](C)[C@@H](C)S(=O)(=O)NC(=O)c2ccc3c(c2)N(C[C@@H]2CC[C@H]21)C[C@@]1(CCCc2cc(Cl)ccc21)CO3 [Example 75, (1S,3′R,6′R,7′S,8′E,11′S,12′R)-6-chloro-7′-methoxy-11′,12′-dimethyl-7′-(1-piperidinylmethyl)-3,4-dihydro-2H,15′H-spiro[naphthalene-1,22′-[20]oxa[13]thia[1,14]diazatetracyclo [14.7.2.0~3,6~.0~19,24~]pentacosa[8,16,18,24]tetraen]-15′-one 13′,13′-dioxide] | – | – | IC50 [1, 6]: 2.05 nM; IC50 [2, 7]: 1610 nM |
| C[C@@H]1[C@@H](C)CCC[C@]2(CCO2)[C@@H]2CC[C@H]2CN2C[C@@]3(CCCc4cc(Cl)ccc43)COc3ccc(cc32)C(=O)NS1(=O)=O (single isomer, unassigned) [Example 100229] | 0.356 nM | 1490 nM | – |
| C[C@@H]1[C@@H](C)CCC[C@](C=O)(CN2CCOCC2)[C@@H]2CC[C@H]2CN2C[C@@]3(CCCc4cc(Cl)ccc43)COc3ccc(cc32)C(=O)NS1(=O)=O [Example 100337, (1S,3′R,6′R,7′R,11′S,12′R)-6-chloro-11′,12′-dimethyl-7′-(4-morpholinylmethyl)-15′-oxo-3,4-dihydro-2H-spiro[naphthalene-1,22′-[20]oxa[13]thia[1,14]diazatetracyclo [14.7.2.0~3,6~.0~19,24~]pentacosa[16,18,24]triene]-7′-carbaldehyde 13′,13′-dioxide] | – | 2410 nM | IC50 [1]: 1.61 nM |
| COCC(COC)N1CCN(C[C@]2(OC)/C=C/C[C@H](C)[C@@H](COC)S(=O)(=O)NC(=O)c3ccc4c(c3)N(C[C@@H]3CC[C@H]32)C[C@@]2(CCCc3cc(Cl)ccc32)CO4)CC1 [Example 172, (1S,3′R,6′R,7′S,8′E,11′S,12′S)-6-chloro-7′-methoxy-7′-((4-(2-methoxy-1-(methoxymethyl)ethyl)-1-piperazinyl)methyl)-12′-(methoxymethyl)-11′-methyl-3,4-dihydro-2H,15′H-spiro[naphthalene-1,22′-[20]oxa[13]thia[1,14]diazatetracyclo [14.7.2.0~3,6~.0~19,24~]pentacosa[8,16,18,24]tetraen]-15′-one 13′,13′-dioxide] | – | – | IC50 [1, 6]: 0.137 nM; IC50 [2, 7]: 55 nM |
| C[C@@H]1[C@@H](C)CCC[C@@](O)(C#CCN2CCOCC2)[C@@H]2CC[C@H]2CN2C[C@@]3(CCCc4cc(Cl)ccc43)COc3ccc(cc32)C(=O)NS1(=O)=O [Example 100354, (1S,3′R,6′R,7′S,11′S,12′R)-6-chloro-7′-hydroxy-11′,12′-dimethyl-7′-(3-(4-morpholinyl)-1-propyn-1-yl)-3,4-dihydro-2H,15′H-spiro[naphthalene-1,22′-[20]oxa[13]thia[1,14]diazatetracyclo [14.7.2.0~3,6~.0~19,24~]pentacosa[16,18,24]trien]-15′-one 13′,13′-dioxide] | 0.109 nM | 147 nM | – |
| COCCN1[C@H](C)CN(C[C@]2(OC)/C=C/C[C@H](C)[C@@H](C)S(=O)(=O)NC(=O)c3ccc4c(c3)N(C[C@@H]3CC[C@H]32)C[C@@]2(CCCc3cc(Cl)ccc32)CO4)C[C@@H]1C [Example 324, (1S,3′R,6′R,7′S,8′E,11′S,12′R)-6-chloro-7′-methoxy-7′-(((3R,5S)-4-(2-methoxyethyl)-3,5-dimethyl-1-piperazinyl)methyl)-11′,12′-dimethyl-3,4-dihydro-2H,15′H-spiro[naphthalene-1,22′-[20]oxa[13]thia[1,14]diazatetracyclo [14.7.2.0~3,6~.0~19,24~]pentacosa[8,16,18,24]tetraen]-15′-one 13′,13′-dioxide] | – | – | IC50 [1, 6]: 0.136 nM; IC50 [2, 7]: 57 nM |
| C[C@@H]1[C@@H](C)C/C=C/[C@](O)(C(F)(F)F)[C@@H]2CC[C@H]2CN2C[C@@]3(CCCc4cc(Cl)ccc43)COc3ccc(cc32)C(=O)NS1(=O)=O [Example 100046, (1S,3′R,6′R,7′R,8′E,11′S,12′R)-6-chloro-7′-hydroxy-11′,12′-dimethyl-7′-(trifluoromethyl)-3,4-dihydro-2H,15′H-spiro[naphthalene-1,22′-[20]oxa[13]thia[1,14]diazatetracyclo [14.7.2.0~3,6~.0~19,24~]pentacosa[8,16,18,24]tetraen]-15′-one 13′,13′-dioxide] | 3.76 nM | 976 nM | – |
| C[C@@H]1[C@@H](C)C/C=C/[C@@]2(COCCO2)[C@@H]2CC[C@H]2CN2C[C@@]3(CCCc4cc(Cl)ccc43)COc3ccc(cc32)C(=O)NS1(=O)=O [Example 100233, (2S,3′R,6′R,8′E,11′S,12′R,22′S)-6″-chloro-11′,12′-dimethyl-3″,4″-dihydro-2″H,15′H-dispiro[1,4-dioxane-2,7′-[20]oxa[13]thia[1,14]diazatetracyclo [14.7.2.0~3,6~.0~19,24~]pentacosa[8,16,18,24]tetraene-22′,1″-naphthalen]-15′-one 13′,13′-dioxide] | 1.04 nM | – | IC50 [2, 5]: 257 nM |
| C[C@@H]1[C@@H](C)C/C=C/[C@](O)(c2nc(CO)nn2C)[C@@H]2CC[C@H]2CN2C[C@@]3(CCCc4cc(Cl)ccc43)COc3ccc(cc32)C(=O)NS1(=O)=O [Example 100201, (1S,3′R,6′R,7′R,8′E,11′S,12′R)-6-chloro-7′-hydroxy-7′-(3-(hydroxymethyl)-1-methyl-1H-1,2,4-triazol-5-yl)-11′,12′-dimethyl-3,4-dihydro-2H,15′H-spiro[naphthalene-1,22′-[20]oxa[13]thia[1,14]diazatetracyclo [14.7.2.0~3,6~.0~19,24~]pentacosa[8,16,18,24]tetraen]-15′-one 13′,13′-dioxide] | 0.086 nM | 307 nM | – |
